Measurements taken from ChEMBL document CHEMBL1949669, “Imidazopyridines as selective CYP3A4 inhibitors” (Bioorg Med Chem Lett, 2012).
In brackets after ≈: the same amount, converted by molar mass.

Tests used:
[1] = Solubility of the compound; assay type: physicochemical
[2] = Half life in human hepatic S9 fraction; assay type: ADME, subcellular, Liver
[3] = Half life in human liver microsomes; assay type: ADME, Microsome

solubility [1] [µM]	half-life [2] [min]	half-life [3] [min]	Structure (SMILES)
2 (≈ 0.811 µg/mL)	–	–	O=C(Nc1ccc(-c2ccccc2)cc1)Nc1ccc(-c2ccnc3[nH]cnc23)cc1
–	8	8	CCOC(=O)c1cccc(NC(=O)Nc2ccc(-c3ccnc4[nH]cnc34)cc2)c1
